{"source": "patent US20050163801A1", "about": "“Method of inducing apoptosis and compositions therefor” (Kyowa Engineering Co., Ltd., priority 2001, published 2005)", "assay_type_in_all_cases": "cell-based", "key": {"HL-60 cell lines": {"system": "HL-60 cell lines", "assay": "Apoptosis inducing activity (Test 3), TUNEL method", "details": "culture for two days", "procedure": "3. Apoptosis inducing activity (Test 3): Measurement was performed using a terminal deoxynucleotidyl transferase (TdT)-mediated deoxyuridine triphosphate (dUTP)-biotin nick end-labeling method (TUNEL method). The TUNEL method is a method for identifying apoptosis on a tissue slice reported by Gavrieli et al. in 1992 (Yael Gavrieli et al., The Journal of Cell Biology, vol. 119, No.3, November, 1992, p. 493-501). The method is known to be a method which enables observation of apoptosis at the individual cell level at various states of morbidity and allows comparison with morphology changes. The TUNEL method was performed with HL-60 cell lines using Apoptosis in situ Detection Kit wako (Wako Pure Chemical Industries, Ltd.), according to the method of Gavrieli et al., supra.\nThe results of FIG. 9 show results measured for respective test groups. […] Based on the above results, cell death of HL60 cell lines by ABMK-22 are confirmed to be death caused by the induction of apoptosis.\nFor identifying the ingredient having the apoptosis induction activity in ABMK-22 obtained in Example 2, ABMK-22 was further purified and fractionated. The obtained ingredient was subjected to the method described in section “3. […]\nNext, the apoptosis induction activity of a ly-ophilized powder of ABMK0415 and ABMK6873 were measured as described in section “3. […]"}, "[1]": {"system": "dendric cells (DC) derived from human peripheral blood monocytes", "assay": "Immune activation activity: induction of dendritic cells from peripheral blood monocytes, CD80 expression by flow cytometry", "details": "for DCs with increase in expression of CD80: analysed on seventh day", "text": "Dendritic cells are involved in the establishment of immunity. Dendritic cells may also be called arborescent cells, dendritic leukocyte, or D cells. This is the generic term for cell groups having dendritic form derived from myelocytes distributed in various tissue organs in the living body except for the brain. The cell groups include lymphoid dendritic cells, Langerhans cells, veil cells, inter-connected cells, and interstitional cells. Accompanying an inflammation response caused by invasion of foreign matter, the cells perform pinocytosis, and move from a local spot via the vas afferens to an associated lymph node or to the spleen through bloodstream. The cells are known to start an immune response after they reach a T cell-dependent region by presenting an antigen in a form combined with class II antigen and by activating specific T cells. Namely, the cells play an important role in the immune system. In the present example, the immune activation activity of ABMK0415 and ABMK6873 were confirmed by assaying the induction power of monocytes to dendritic cells.\nPeripheral blood of two healthy people was used as a material with donor consent.\nPBMC were separated from a whole blood specimen which was collected with heparinization by a Ficoll-Paque density centrifugal separation method.\nABMK0415 and ABMK6873 were used as test samples. ABMK0415 and ABMK6873 were respectively dissolved in culture media of cells used for tests (10% FCS added RPMI-1640, 5% human AB serum added RPMI-1640) such that each mixture has a concentration of 200 mg/ml. The mixtures were filter-sterilized through a filter having a pore diameter of 0.22 μm to obtain test samples.\nAn effect of immune activation of novel compounds was examined in vittro through induction power for dendric cells (DC) derived from human peripheral blood monocytes.\nPBMC was processed with a dish treatment for one hour with a carbon dioxide gas incubator. Thus, a monocyte-rich attachment cell fraction was obtained. The cells obtained were cultured in 5% human AB serum added RPMI-1640 (NIKKEN BIOLOGICAL MEDICAL RESEARCH), in the presence of 500 U/ml of GM-CSF (DIACLONE Research) and IL-4(BD Biosciences).\nFor culturing, a dish (NUNC) having a diameter of 3.5 cm was used. On the sixth day of culture, Picibanil and the novel compound were added such that the final concentration is 0.1 KE/ml for Picibanil, and 200 μg/ml for ABMK0415and ABMK6873. Picibanil (Chugai Pharmaceutical Co., Ltd.) was used as a positive control which has a DC induction power. […]\nAll DCs in the dish were collected on the seventh day after the culture started. The surface antigen thereof was analyzed by flow cytometry using a monoclonal antibody (anti-CD80; BD Bioscience). […]"}, "HL60 cell line [2]": {"system": "HL60 cell line", "assay": "Cell growth suppression activity (Test 1), cell number by counting chamber", "procedure": "1. Cell growth suppression activity (Test 1): For assay, the Collagen gel droplet embedded culture-drug sensitivity test (CD-DST method) and a counting chamber were used.\nA method using a counting chamber was performed following the method described in Rinsho Kensaho Teiyo (Kanai's Manual of Clinical Laboratory Medicine), 30th Ed. (Aug. 20, 1993; Kanehara & Co., Ltd.; Tokyo).\nBased on the results of measurement using HL60 cell lines, it became clear that the CD-DST method is not suitable for measuring the growth state of suspended cells. Therefore, the cell growth suppression activity was measured using a counting chamber.\nFirst, growth of HL60 cell lines was examined in the presence of ABMK-22 at various concentrations to obtain a growth curve of the HL60 line. More specifically, an initial number of cells of HL 60 cell lines was set to be 200,000/ mL. ABMK-22 was added to have concentrations of 0.1, 0.25, 0.5, 0.75, 1, 2, 2.5, 3, 4and 5 mg/1 mL, respectively and cultured. The number of the cells was measured over time for four days.\nEach of the symbols in FIG. 1 indicates the result of measurement of the number of the cells (number/ml) in the presence of ABMK-22 at the concentration of the number indicated in the lower part of FIG. 1 by the symbols. […]"}, "HL60 cell line [3]": {"system": "HL60 cell line", "assay": "Cell differentiation inducing activity (Test 2), NBT reduction", "details": "used by itself; NBT reducing power", "procedure": "2. Cell differentiation inducing activity (Test 2): Evaluation was made using Nitro blue tetrazolium (NBT) reduction power. NBT reduction was performed in accordance with the method of S. J. Collins et al. (Int. J. Cancer: 25, pages 213-218 (1980)). In brief, the method is as follows: about 2×10^5 HL60 cells were pelleted, and washed in RPMI-1640 medium. Then, the cells were suspended in RPMI-1640 medium containing 0.1% NBT and 100 ng/ml of phorbol ester (TPA), and cultured for forty minutes at 37° C. The resultant culture was observed under microscope and cells containing blue-black deposits were assessed as differentiated cells. In the presence of ABMK-22 at various concentrations, HL60 cells were cultured for four days and the differentiation inducing power of ABMK-22 was measured. The results of measuring NBT reducing power, which is an indicator of differentiation of a HL60 cell line under each concentration, are shown in FIG. 7. […] At a concentration of 4 mg/mL, about 33% of the cells that were alive were differentiated."}}, "data": [{"compound": "O=Cc1ccc(CO)n1CCCC(=O)O", "note": "[ABMK0415, N-(3-carboxypropyl)-2-formyl-5-hydroxy-methylpyrrole]", "values": [{"measurement": "cells in which apoptosis was induced (apoptosis positive cells)", "setting": "HL-60 cell lines; 2.07×10^−4M", "value": "about 35%"}, {"measurement": "DCs with increase in expression of CD80", "setting": "[1]; 200 μg/ml added on sixth day", "value": "about 20%"}]}, {"compound": "N[C@@H](CCC(=O)NNc1ccc(C=O)cc1)C(=O)O", "note": "[ABMK6873]", "values": [{"measurement": "growth of HL-60 cells", "setting": "HL60 cell line [2]; 2.7×10^−4M", "value": "remarkably suppressed"}, {"measurement": "growth of HL-60 cells", "setting": "HL60 cell line [2]; various concentrations (2.07×10^−6M to 2.07×10^−4M ABMK0415; 2.7×10^−6M to 2.7×10^−4M ABMK6873)", "value": "suppress growth of HL-60 cells in nearly a concentration-dependent manner"}, {"measurement": "cells in which apoptosis was induced (apoptosis positive cells)", "setting": "HL-60 cell lines; 2.7×10^−4M", "value": "about 70%"}, {"measurement": "expression induction of CD80 molecules", "setting": "[1]; 200 μg/ml added on sixth day", "value": "remarkably strong expression induction of CD80 molecules"}, {"measurement": "DCs with increase in expression of CD80", "setting": "[1]; 200 μg/ml added on sixth day", "value": "about 92%"}, {"measurement": "DC inducing power", "setting": "[1]; compared with Picibanil", "value": "stronger than that of Picibanil"}]}, {"compound": "CC1=C(/C=C/C(C)=C/C=C/C(C)=C/C(=O)O)C(C)(C)CCC1", "note": "[ATRA, all-trans retinoic acid]", "values": [{"measurement": "concentration at which the agent by itself does not exhibit cell differentiation induction activity", "setting": "HL60 cell line [3]", "value": "≤ 10^−9 M"}]}, {"compound": "C=C1/C(=C\\C=C2/CCC[C@]3(C)[C@@H]([C@H](C)CCCC(C)(C)O)CC[C@@H]23)C[C@@H](O)C[C@@H]1O", "note": "[VD3, 1α, 25(OH)2D3]", "values": [{"measurement": "concentration at which the agent by itself does not exhibit cell differentiation induction activity", "setting": "HL60 cell line [3]", "value": "≤ 10^−10 M"}]}]}
